Data on 1 substance can be found in publication PMC5884652, “New antimicrobial peptide kills drug-resistant pathogens without detectable resistance” (Oncotarget, 2018).

Ends that are not written are not given here.

One data set concerns P. aeruginosa 3543. The data set is described as follows: microbe, parasite or virus in culture. To be noted: pH 7.4 (II); 10 mM sodium phosphate buffer, 10% LB; 37° C, 24 h; mean of 3 experiments. It counts as cell-based, Pseudomonas aeruginosa. An excerpt: (§1) The method for peptide synthesis has been described in detail previously. E. coli ATCC 25922 (LB media), P. aeruginosa ATCC 15692 (NB+0.5% NaCl media), Listeria monocytogenes ATCC 3710 (LB media), Staphylococcus epidermidis ATCC 12228 (LB media), and S. aureus ATCC 29213 (TSB media) were obtained from the American Type Culture Collection (Manassas, VA, USA). Bacillus subtilis KCTC 1998 (LB media), Salmonella typhimurium KCTC 1926 (NB media), and Proteus vulgaris KCTC 2433 (NB media) were obtained from the Korean Collection for Type Cultures (Jeollabuk-do, Korea). E. coli CCARM 1238 was received from the Culture Collection of Antibiotic Resistant Microbes at Seoul Women’s University, Korea. Drug-resistant P. aeruginosa 3543, 3904, 3547, and 4007 and S. aureus 3126, 0027, 5157, 1635, 4761, 5159, 3359, 2122, 1630, 1870, 3511, 5156, and 3518 were resistant strains isolated from patients with otitis media in a Chonnam National University’s hospital.
(§2) The antibacterial activities of AMPs (melittin, clavaspirin, and its analogs) and conventional antibiotic drugs (erythromycin, gentamicin, ampicillin, and piperacidin) were determined using microdilution assays. Bacterial cells were cultured at 37° C in appropriate culture media at pH 5.5 or pH 7.4 until collection during the mid-log phase and suspended in 10 mM sodium phosphate buffer (pH 5.5 or pH 7.4) supplemented with 10% culture medium. Thereafter, 2× serial dilutions of each peptide (0.25–128 μM) or antibiotic (0.25–256 μM) were added to sterile 96-well plates, and aliquots of cell suspension (5 × 10^5 colony forming units (cfu)/mL) were seeded into each well. The samples were then incubated at 37° C for 24 h. At the end of the incubation, the minimum inhibitory concentrations (MICs) of the peptides were determined using a VERSA Max microplate reader (Molecular Devices Co., Sunnyvale, CA, USA) at a wavelength of 600 nm. […] MIC values were calculated as the mean of 3 independent experiments conducted in triplicate.

The next data set concerns P. aeruginosa 3547. The data set is described as follows: microbe, parasite or virus in culture. Type of data set: cell-based, Pseudomonas aeruginosa. As to conditions: pH 7.4 (II); 10 mM sodium phosphate buffer, 10% LB; 37° C, 24 h; mean of 3 experiments.
Description: as §1, §2

A further data set concerns P. aeruginosa 3904. The experiment in a line: microbe, parasite or virus in culture. Type of data set: cell-based, Pseudomonas aeruginosa. As to conditions: pH 7.4 (II); 10 mM sodium phosphate buffer, 10% LB; 37° C, 24 h; mean of 3 experiments.
Description: as §1, §2

The subject of a further data set is P. aeruginosa 4007. The experiment in a line: microbe, parasite or virus in culture. It counts as cell-based, Pseudomonas aeruginosa. To be noted: pH 7.4 (II); 10 mM sodium phosphate buffer, 10% LB; 37° C, 24 h; mean of 3 experiments.
Description: as §1, §2

A further data set concerns S. aureus ATCC 29213. The experiment in a line: microbe, parasite or virus in culture. Here is the method: To determine the MICs of CSP-4, a single colony of S. aureus ATCC 29213 was cultured at 37° C in tryptic soy broth, as well as daptomycin and linezolid, which served as commercial antibiotic positive controls. […] For each agent, the MIC was determined daily for 29 days at pH 5.5 and/or for 8 days at pH 7.4 using cells from wells containing half the MIC (1/2 MIC well). […] All MICs were determined in duplicate.

Data set [1] deals with S. aureus CCARM 0027-infected hairless mice. The data set is described as follows: Dermal infection and inflammation model. Type of data set: in vivo, mouse. How it is done:
Male hairless mouse (aged 6 weeks, 5 mouse/group, total 7 groups) were injected intraepidermal with S. aureus CCARM 0027 (1 × 10^8 cfu/ml). The CSP-4 peptide (200, 100, 50, 25 μg/ml) was injected intraeptidermal into mice at 1 h after the S. aureus CCARM 0027 injection, samples of inflamed skin was collected after 7 days and 4-μm-thick sections were prepared as described in the preceding section. Each sample was then incubated for 30 min at 24° C with 5% bovine serum albumin, mouse anti-Toll-like receptor-2 (TLR-2) (AbFrontier, AB24192), mouse monoclonal anti-TNF-α (AbFrontier, AB1793), and mouse polyclonal anti-IL-1β (AbFrontier, AB1413). The samples were then washed with Tris-buffered saline containing Tween 20 buffer and incubated with HRP LF-SA5001-conjugated goat anti-mouse IgG, and stained with hematoxylin and eosin. The stained sections were examined under a fluorescence microscope.
Western blot analysis was performed as using changes in protein expression. Briefly, proteins extracted from the hairless mouse skin were separated for 3 h using 15% SDS-polyacrylamide gel electrophoresis and transferred to polyvinylidene fluoride membranes (Bio-Rad, Hercules, CA, USA) for 1 h at 90 V. The membranes were then incubated overnight at 4° C in 5% skim milk containing anti-GAPDH (LF-PA0018; Santa Cruz Biotechnology, Santa Cruz, CA, USA), mouse anti-TLR2 (AbFrontier, AB24192), mouse anti-NF-κB, (Santa Cruz Biotechnology, SC-71675), mouse anti-TNF-α (AbFrontier, AB1793), mouse anti-IL-1β (AbFrontier, AB1413), and mouse anti-cathelicidin (AbFrontier, AB93357). The membranes were then washed in Tris-buffered saline containing Tween 20 and incubated with the horseradish peroxidase (HRP)-conjugated secondary antibodies LF-SA5002 goat anti-rabbit IgG and LF-SA5001 goat anti-mouse IgG. The blots were developed using a Western Blot Detection kit (AbFrontier, LF-QC0103).
For scanning electron microscopy (SEM), S. aureus cells were cultured in LB medium (pH 5.5 or pH 7.4), washed 3 times with 10 mM sodium phosphate buffer, and stirred at 4000 rpm. CSP-4 was added to the cells and incubated at 25° C. After incubation, the cells were fixed in 4% glutaraldehyde for 20 min and dehydrated in 50% and then 100% ethanol (10 min each step) at 37° C. In addition, 7 days after inducing inflammation in hairless mouse skin tissue by infection with drug-resistant S. aureus CCARM 0027 strain or E. coli bacteria, samples of skin tissue were isolated, washed in PBS, fixed in 4% paraformaldehyde overnight at 4° C, and dehydrated in 50% and then 100% ethanol (2 h each step) at 37° C. Samples were then gold-coated and visualized by SEM (JSM-7100F; JEOL, Tokyo, Japan).

Take FLRFIGSVKHGKGHLVHHIGVAL-NH2 [CSP-4]: the MIC with P. aeruginosa 3543 amounted to 4 µM; in the data set with P. aeruginosa 3547 it was 4 µM; in the data set on P. aeruginosa 3904, 2 µM; with P. aeruginosa 4007, 2 µM. Besides, the “MIC after 29 passages” value against S. aureus ATCC 29213 (after exposure for 29 passages) came to 16 µM. In addition, the “Increase of MIC” value with S. aureus ATCC 29213 (after exposure for 29 passages, pH not given) is “approximately 2 ×”. The “Induction of drug resistance” value in the data set with S. aureus ATCC 29213 (exposure for up to 29 passages) is “did not induce drug resistance”. Moreover, in data set [1] (200 µg/mL and 100 µg/mL, skin collected after 7 days, hematoxylin and eosin), the “Epidermal thickness and immune cell infiltration” value is “dose-dependent decrease”. For the same substance, in data set [1] (200 μg/mL or 100 μg/mL, Western blot), the “TLR-2, NF-κB, TNF-α, IL-1β, and cathelicidin levels in skin” value is “concentration-dependent decreases”. In addition, in data set [1] (CSP-4 alone (200 µg/mL), SEM), the “Dermal collagen and elastin, uninfected mice treated with peptide alone” value was “not damaged”. In data set [1] (SEM, 7 days after infection), the “Collagen and elastin damage in infected skin” value is recorded as “dose-dependently reduced”.
